Data taken from ChEMBL document CHEMBL5634082, “Recent advances in the development of inhibitors targeting KRAS-G12C and its related pathways” (Eur J Med Chem, 2023).
One block for each compound: values may come before it.

Assays:
[1] = Inhibition of ERK phosphorylation in human NCI-H358 cells harboring KRAS G12C mutant incubated for 6 hrs by Western blot analysis; assay type: cell-based; settings: NCI-H358, 6 h
[2] = biological target: von Hippel-Lindau disease tumor suppressor/GTPase KRas (Homo sapiens, UniProt P01116+P40337, G12C); test: Protac activity at VHL/KRAS G12C mutant in human NCI-H2030 cells assessed as degradation of KRAS G12C mutant incubated for 24 hrs by immunoblot assay; assay type: cell-based
[3] = tested on: von Hippel-Lindau disease tumor suppressor/GTPase KRas (Homo sapiens), P01116+P40337 [G12C]; test: PROTAC activity at VHL/KRAS G12C mutant in human NCI-H2030 cells assessed as induction of protein degradation by measuring maximal efficacy at […] incubated for 24 hrs by Immunoblotting analysis relative to control; assay type: cell-based; settings: dose 2.5 µM
NCI-H358 [4] = test: Antitumor activity against human NCI-H358 cells harboring KRAS G12C mutant xenografted in mouse model assessed as tumor growth inhibition at 10 mg/kg, po relative to control; assay type: functional; design: scale not given: the % may be the effect or the level left
NCI-H358 [5] = test: Antitumor activity against human NCI-H358 cells harboring KRAS G12C mutant xenografted in mouse model assessed as tumor growth inhibition at 30 mg/kg, po relative to control; assay type: functional; design: scale not given: the % may be the effect or the level left
NCI-H358 [6] = test: Antitumor activity against human NCI-H358 cells harboring KRAS G12C mutant xenografted in mouse model assessed as tumor growth inhibition at 100 mg/kg, po relative to control; assay type: functional; design: scale not given: the % may be the effect or the level left
[7] = tested on: von Hippel-Lindau disease tumor suppressor/GTPase KRas (Homo sapiens), P01116+P40337 [G12C]; test: Protac activity at VHL/KRAS G12C mutant in human SW1573 cells assessed as induction of protein degradation by measuring maximal efficacy at […] incubated for 72 hrs by Western blot analysis relative to control; assay type: cell-based; settings: dose 2.5 µM
GTPase KRas [8] = biological target: GTPase KRas (Homo sapiens, UniProt P01116, G12V); test: Binding affinity to Cys12 residue of GDP bound human KRAS […] mutant expressed in Escherichia coli BL21 Rosetta cells assessed as dissociation constant by HSQC NMR spectral analysis
[9] = Inhibition of ERK phosphorylation in human NCI-H358 cells incubated for 3 hrs; assay type: cell-based; settings: NCI-H358, 3 h
[10] = tested on: GTPase KRas (Homo sapiens), P01116 [G12C]; test: Inhibition of KRAS G12C mutant (unknown origin) at 10 uM relative to control
GTPase KRas [11] = biological target: GTPase KRas (Homo sapiens, UniProt P01116, G12C); test: Inhibition of KRAS G12C mutant (unknown origin)
NCI-H441 = test: Antiproliferative activity against human NCI-H441 cells harboring KRAS G12V mutant assessed as reduction in cell viability incubated for 72 hrs by MTT assay; assay type: functional, cell-based; settings: NCI-H441, 72 h
cells = settings: Homo sapiens, MKN-1
[12] = Clearance in iv dosed CD-1 mouse; assay type: ADME, organism-based; settings: in vivo
[13] = Volume of distribution at steady state in iv dosed CD-1 mouse; assay type: ADME, organism-based; settings: in vivo, read-out: Vdss
[14] = Volume of distribution at steady state in iv dosed Sprague-Dawley rat by LC-MS/MS analysis; assay type: ADME, organism-based; settings: in vivo, read-out: Vdss
[15] = Volume of distribution at steady state in iv dosed Beagle dog; assay type: ADME, organism-based, Canis lupus familiaris; settings: in vivo, read-out: Vdss
[16] = Oral bioavailability in CD-1 mouse; assay type: ADME, organism-based; settings: in vivo
[17] = Oral bioavailability in Sprague-Dawley rat; assay type: ADME, organism-based; settings: in vivo
[18] = Oral bioavailability in Beagle dog; assay type: ADME, organism-based, Canis lupus familiaris; settings: in vivo

SMILES: C=CC(=O)N1CC2(CC(n3nc(-c4ccc5c(cnn5C)c4)c(-c4c(Cl)c(C)cc5[nH]ncc45)c3C)C2)C1 [OPNURASIB]
IC50 [1]: 20 nM

SMILES: C=C(F)C(=O)N1CCN(c2nc(OC[C@@H]3CCCN3CCC(=O)NCCC(=O)N[C@H](C(=O)N3C[C@H](O)C[C@H]3C(=O)NCc3ccc(-c4scnc4C)cc3)C(C)(C)C)nc3c2CCN(c2cccc4cccc(Cl)c24)C3)C[C@@H]1CC#N
DC50 [2]: 6400 nM | Emax [3]: 85%

SMILES: C=CC(=O)N1CCN(c2nc(OC[C@@H]3CCCN3C)nc3c2CCN(c2cccc4cccc(Cl)c24)C3)C[C@@H]1CC#N
Activity (NCI-H358 [4]): 70% | Activity (NCI-H358 [5]): 89% | Activity (NCI-H358 [6]): 90%

SMILES: C=C(F)C(=O)N1CCN(c2nc(OC[C@@H]3CCCN3CCC(=O)NCCOCCOCCC(=O)N[C@H](C(=O)N3C[C@H](O)C[C@H]3C(=O)NCc3ccc(-c4scnc4C)cc3)C(C)(C)C)nc3c2CCN(c2cccc4cccc(Cl)c24)C3)C[C@@H]1CC#N
Emax [3]: 30%

SMILES: C=CC(=O)N1CC2(CC(n3nc(C(C)C)c(-c4c(C)ccc5[nH]ncc45)c3C)C2)C1
IC50 [1]: 3900 nM

SMILES: C=C(F)C(=O)N1CCN(c2nc(OC[C@@H]3CCCN3CCCOCCC(=O)N[C@H](C(=O)N3C[C@H](O)C[C@H]3C(=O)NCc3ccc(-c4scnc4C)cc3)C(C)(C)C)nc3c2CCN(c2cccc4cccc(Cl)c24)C3)C[C@@H]1CC#N
DC50 [2]: 590 nM | Emax [7]: 90% | Emax [3]: 75%

Kd (GTPase KRas [8]): < 10000 nM
SMILES: C[C@]1(c2nc(-c3ccc(N)cc3)no2)CCCc2sc(N)c(C#N)c21

SMILES: C=CC(=O)N1CCN(c2nc(OC[C@@H]3CCCN3C)nc3c2CCN(c2cccc4ccccc24)C3)CC1
IC50 [9]: 4400 nM

SMILES: C=C(F)C(=O)N1CCN(c2nc(OC[C@@H]3CCCN3CCOCCOCCC(=O)N[C@H](C(=O)N3C[C@H](O)C[C@H]3C(=O)NCc3ccc(-c4scnc4C)cc3)C(C)(C)C)nc3c2CCN(c2cccc4cccc(Cl)c24)C3)C[C@@H]1CC#N
DC50 [2]: > 10000 nM | Emax [7]: 50%

inhibition [10]: 98.6% | IC50 (GTPase KRas [11]): 340 nM
SMILES: C=CC(=O)N1CCN(c2nc(OC[C@@]34CCCN3C[C@H](F)C4)nc3c2cc(-c2cccc4cccc(C)c24)n3C)C[C@@H]1CC#N

SMILES: CC1(C)CCCc2sc(N)c(C#N)c21
IC50 (NCI-H441): < 10000 nM

SMILES: C=CC(=O)N1CC2(CC(n3nc(-c4ccc5[nH]ncc5c4)c(-c4c(Cl)c(C)cc5[nH]ncc45)c3C)C2)C1
IC50 [1]: 20 nM

SMILES: C=CC(=O)N1CC2(CC(n3nc(-c4ccccc4)c(-c4c(Cl)c(C)cc5[nH]ncc45)c3C)C2)C1
IC50 [1]: 40 nM

inhibition [10]: 17%
SMILES: C=CC(=O)N1CCN(c2nc(OC[C@@H]3CCCN3C)nc3c2cc(-c2cccc4ccccc24)n3C)C[C@@H]1CC#N

inhibition [10]: 39.8%
SMILES: C=CC(=O)N1CCN(c2nc(OC[C@@H]3CCCN3C)nc3c2cc(-c2cccc4cccc(C)c24)n3C)C[C@@H]1CC#N

SMILES: N#Cc1c(N)sc2c1CCCC2
IC50 (NCI-H441): 16000 nM

SMILES: Cc1c([C@@H](C)Nc2nnc(C)c3ccc(N4CCNCC4)cc23)cccc1C(F)(F)F
IC50 (cells): 74 nM

SMILES: C=C(F)C(=O)N1CCN(c2nc(OC[C@@H]3CCCN3CCC(=O)NCCOCCC(=O)N[C@H](C(=O)N3C[C@H](O)C[C@H]3C(=O)NCc3ccc(-c4scnc4C)cc3)C(C)(C)C)nc3c2CCN(c2cccc4cccc(Cl)c24)C3)C[C@@H]1CC#N
Emax [3]: 35%

inhibition [10]: 91.3% | IC50 (GTPase KRas [11]): 1540 nM
SMILES: C=CC(=O)N1CCN(c2nc(OCC34CCCN3CCC4)nc3c2cc(-c2cccc4cccc(C)c24)n3C)C[C@@H]1CC#N

SMILES: Cc1c([C@@H](C)Nc2nnc(C)c3cnc(N4CCOCC4)cc23)cccc1C(F)(F)F
IC50 (cells): 26 nM

Kd (GTPase KRas [8]): < 10000 nM
SMILES: C[C@]1(c2nc(-c3cccc(N)c3)no2)CCCc2sc(N)c(C#N)c21

SMILES: Cc1c(C#N)cccc1[C@@H](C)Nc1nnc(C)c2cnc(N3CCOCC3)cc12 [MRTX-0902]
clearance [12]: 4.4 mL/min/kg | Vd [13]: 0.28 L/kg | Vd [14]: 0.28 L/kg | Vd [15]: 0.28 L/kg | bioavailability [16]: 38% | bioavailability [17]: 38% | bioavailability [18]: 38%

SMILES: C=CC(=O)N1CCN(c2nc(OC[C@@H]3CCCN3C)nc3c2CCN(c2cccc4ccccc24)C3)C[C@@H]1CC#N
IC50 [9]: 10 nM

SMILES: C=C(F)C(=O)N1CCN(c2nc(OC[C@@H]3CCCN3CCCCOCCC(=O)N[C@H](C(=O)N3C[C@H](O)C[C@H]3C(=O)NCc3ccc(-c4scnc4C)cc3)C(C)(C)C)nc3c2CCN(c2cccc4cccc(Cl)c24)C3)C[C@@H]1CC#N
DC50 [2]: 880 nM | Emax [7]: 90%
